Values quoted from earlier work in paper PMC3616063, “Genomic and Structural Characterization of Kunitz-Type Peptide LmKTT-1a Highlights Diversity and Evolution of Scorpion Potassium Channel Toxins” (PLoS ONE, 2013).

How the values were obtained:
IKCa channels = conditions: ref [10]
Description: (§1) Over the last 400 million years, scorpions have evolved many peptide toxins that target different potassium channels. Numerous potassium channel toxins have been isolated from scorpions including those identified by proteomic and transcriptome analysis of scorpion venom glands [2]–[4]. These toxins are divided into α-KTx, β-KTx, γ-KTx, and κ-KTx subfamilies based on their similarity, [6]. Some of the toxins are specific inhibitors that serve as useful pharmacological tools and candidate drugs that target various potassium channels. Examples include charybdotoxin (ChTX), ...

SKCa channels = conditions: ref [9]
Description: as §1

BKCa channels = conditions: ref [8]
Description: as §1

Kv1.3 = conditions: ref [8]
Description: as §1

Herg channels = conditions: ref [11]
Description: as §1

Substance: maurotoxin (VSCTGSKDCYAPCRKQTGCPNAKCINKSCKCYGC; UniProt P80719 1-34, looked up) [maurotoxin (MTX)]
- IKCa channel targeting (IKCa channels): targeted toward IKCa channels

Substance: scyllatoxin (AFCNLRMCQLSCRSLGLLGKCIGDKCECVKH; UniProt P16341 1-31, looked up) [scyllatoxin (ScyTx)]
- SKCa channel inhibition (SKCa channels): inhibits SKCa channels

Substance: charybdotoxin [charybdotoxin (ChTX)]
- BKCa channel targeting (BKCa channels): targeted toward Kv1.3 and BKCa channels
- Kv1.3 channel targeting (Kv1.3): targeted toward Kv1.3

Substance: BeKm-1: scorpion toxin which inhibits Herg channels (RPTDIKCSESYQCFPVCKSRFGKTNGRCVNGFCDCF; UniProt Q9BKB7 22-57, looked up)
- Herg channel inhibition (Herg channels): inhibits Herg channels
